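Five compound concentrations were applied to cells in 96-well plates for 48 hours; endpoints were derived by simple linear interpolation of the resulting dose-response curve. At the GI50, growth is halved.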 Activity calls are given as the source filed them. Cut-off read from the data, not from the text of the source: active = GI50 up to about 1.1 µM and inactive = higher.
Legend:
Assay in all cases: NCI-60 cell line screen, 48 h
HT-29 = test system: HT-29
SW-620 = test system: SW-620
786-0 = test system: 786-0
IGROV-1 = test system: IGROV-1
MOLT-4 = test system: MOLT-4
SK-MEL-2 = test system: SK-MEL-2
ACHN = test system: ACHN
SK-OV-3 = test system: SK-OV-3
SN12C = test system: SN12C
COLO 205 = test system: COLO 205
SK-MEL-28 = test system: SK-MEL-28
SK-MEL-5 = test system: SK-MEL-5
HL-60 = test system: HL-60
SF-295 = test system: SF-295
KM12 = test system: KM12
SF-539 = test system: SF-539
MDA-N = test system: MDA-N
UACC-62 = test system: UACC-62
NCI-H226 = test system: NCI-H226
CAKI-1 = test system: CAKI-1

Measured: GI50

COc1cc2c3cc1Oc1c(OC)c(OC)cc4c1C(Cc1ccc(O)c(c1)Oc1ccc(cc1)CC3N(C)CC2)N(C)CC4 (stereo not given)
inactive: HT-29 31.3 µM | SW-620 69.8 µM | 786-0 > 100 µM | IGROV-1 39.8 µM | MOLT-4 44.4 µM | SK-MEL-2 28.8 µM | ACHN 17.3 µM | SK-OV-3 29.6 µM | SN12C 19.1 µM | COLO 205 32 µM | SK-MEL-28 64.4 µM | SK-MEL-5 20 µM | HL-60 28.3 µM | SF-295 21.5 µM | KM12 28.1 µM | SF-539 24.8 µM | MDA-N 21.7 µM | UACC-62 44.6 µM | NCI-H226 49.9 µM | CAKI-1 17.9 µM

CN(C)Cc1c[nH]c2ncnc(O)c12
inactive: HT-29 28.2 µM | SW-620 27.2 µM | 786-0 23.2 µM | IGROV-1 35 µM | MOLT-4 7.8 µM | SK-MEL-2 43.6 µM | ACHN 38 µM | SK-OV-3 > 100 µM | SN12C 34.2 µM | COLO 205 35.8 µM | SK-MEL-28 46.1 µM | SK-MEL-5 53.7 µM | HL-60 19.7 µM | SF-295 > 100 µM | KM12 > 100 µM | SF-539 22.4 µM | MDA-N 23.1 µM | UACC-62 20.9 µM | NCI-H226 > 100 µM | CAKI-1 19.8 µM

COc1ccc(C2=NOC(N)(c3ccc(OC)cc3)C2)cc1 (stereo not given)
inactive: HT-29 > 100 µM | SW-620 > 100 µM | 786-0 90.8 µM | IGROV-1 > 100 µM | MOLT-4 > 100 µM | SK-MEL-2 > 100 µM | ACHN > 100 µM | SK-OV-3 > 100 µM | SN12C > 100 µM | COLO 205 > 100 µM | SK-MEL-28 > 100 µM | SK-MEL-5 56.9 µM | HL-60 38.2 µM | SF-295 > 100 µM | KM12 30.8 µM | SF-539 > 100 µM | MDA-N > 100 µM | UACC-62 > 100 µM | NCI-H226 > 100 µM | CAKI-1 > 100 µM

COc1cc(C)cc2c1c(=O)c1ccccc1n2C
inactive: HT-29 28.7 µM | SW-620 46.2 µM | 786-0 38.5 µM | IGROV-1 42.1 µM | MOLT-4 31.3 µM | SK-MEL-2 15.9 µM | ACHN 36 µM | SK-OV-3 60 µM | SN12C 37.5 µM | COLO 205 27.2 µM | SK-MEL-28 42.6 µM | SK-MEL-5 25 µM | HL-60 33.7 µM | SF-295 20.8 µM | KM12 34.4 µM | SF-539 20.2 µM | MDA-N 19 µM | UACC-62 33.7 µM | NCI-H226 33.5 µM | CAKI-1 54.8 µM

Cc1c(/C=N/NC(=S)Nc2ccc(Cl)cc2)c(=O)n(-c2ccccc2)n1C
inactive: HT-29 > 100 µM | SW-620 > 78.5 µM | 786-0 16.3 µM | IGROV-1 16 µM | MOLT-4 > 60.8 µM | SK-MEL-2 21.6 µM | ACHN 16.1 µM | SK-OV-3 18.2 µM | SN12C > 82.6 µM | COLO 205 > 71.1 µM | SK-MEL-28 > 100 µM | SK-MEL-5 20.1 µM | HL-60 > 100 µM | SF-295 18.4 µM | KM12 > 47.6 µM | SF-539 15 µM | MDA-N > 100 µM | UACC-62 > 48.5 µM | NCI-H226 18.7 µM | CAKI-1 9.75 µM

O=C1C(/N=N/c2ccc(-c3nc4ccccc4[nH]3)cc2)NC(=S)N1c1ccccc1 (stereo not given)
inactive: HT-29 31.8 µM | SW-620 28.1 µM | 786-0 18.9 µM | IGROV-1 40.2 µM | MOLT-4 18.9 µM | SK-MEL-2 > 100 µM | ACHN > 100 µM | SK-OV-3 > 100 µM | SN12C > 100 µM | COLO 205 73.6 µM | SK-MEL-28 > 100 µM | SK-MEL-5 > 100 µM | HL-60 > 100 µM | SF-295 91.6 µM | KM12 18 µM | SF-539 51.9 µM | MDA-N 39.5 µM | UACC-62 > 100 µM | NCI-H226 > 100 µM | CAKI-1 > 100 µM

CN(CCNC(=O)c1cn(C)c2c1ccc1cc(Cl)ccc12)CCNC(=O)c1cn(C)c2c1ccc1cc(Cl)ccc12
inactive: HT-29 1.93 µM | SW-620 5.28 µM | 786-0 1.99 µM | IGROV-1 3.57 µM | MOLT-4 5.01 µM | SK-MEL-2 6.92 µM | ACHN 5.25 µM | SK-OV-3 1.56 µM | SN12C 1.78 µM | COLO 205 1.2 µM | SK-MEL-28 5.85 µM | SK-MEL-5 10.9 µM | HL-60 3.26 µM | SF-295 1.86 µM | KM12 1.67 µM | SF-539 4.78 µM | MDA-N 1.95 µM | UACC-62 5.97 µM | NCI-H226 25.9 µM | CAKI-1 1.6 µM

COC(=O)c1c(CC(Cc2ccc3c(c2)CCCC3)C(=O)O)ccc2c1CCCC2 (stereo not given)
inactive: HT-29 33 µM | SW-620 40.7 µM | 786-0 36.1 µM | IGROV-1 36.8 µM | MOLT-4 37.1 µM | SK-MEL-2 20.9 µM | ACHN 34 µM | SK-OV-3 41 µM | SN12C 36.9 µM | COLO 205 18.3 µM | SK-MEL-28 34.7 µM | SK-MEL-5 34.4 µM | HL-60 23 µM | SF-295 32.6 µM | KM12 27.4 µM | SF-539 22.5 µM | MDA-N 43.2 µM | UACC-62 22.4 µM | NCI-H226 39.9 µM | CAKI-1 36 µM

C1=N\c2ccc(cc2)/N=C\c2ccc(cc2)OCc2cccc(n2)COc2ccc/1cc2
inactive: HT-29 > 100 µM | SW-620 > 100 µM | 786-0 > 100 µM | IGROV-1 > 100 µM | MOLT-4 > 100 µM | SK-MEL-2 > 100 µM | ACHN > 100 µM | SK-OV-3 > 100 µM | SN12C > 100 µM | COLO 205 > 100 µM | SK-MEL-28 > 100 µM | SK-MEL-5 > 100 µM | HL-60 > 100 µM | SF-295 > 100 µM | KM12 > 100 µM | SF-539 > 100 µM | MDA-N > 100 µM | UACC-62 > 100 µM | NCI-H226 > 100 µM | CAKI-1 > 100 µM

Cc1ccc(/N=N/C(=NNC(=O)c2ccc(C)cc2)c2ccc(N(C)C)cc2)cc1
inactive: HT-29 31.1 µM | SW-620 32.2 µM | 786-0 33.3 µM | IGROV-1 29.3 µM | MOLT-4 33 µM | SK-MEL-2 38.3 µM | ACHN 66.4 µM | SK-OV-3 23.7 µM | SN12C 23.2 µM | COLO 205 12.3 µM | SK-MEL-28 36 µM | SK-MEL-5 15.5 µM | HL-60 27.5 µM | SF-295 26.4 µM | KM12 16.9 µM | SF-539 43 µM | MDA-N 19.8 µM | UACC-62 10.8 µM | NCI-H226 23.8 µM | CAKI-1 23 µM

CC1(C)C=C(/C=N/Nc2ccc([N+](=O)[O-])cc2)C(C#N)=C(O)C1(C#N)C#N
inactive: HT-29 > 100 µM | SW-620 > 100 µM | 786-0 > 100 µM | IGROV-1 > 100 µM | MOLT-4 > 100 µM | SK-MEL-2 > 100 µM | ACHN > 100 µM | SK-OV-3 > 100 µM | SN12C > 100 µM | COLO 205 > 100 µM | SK-MEL-28 > 100 µM | SK-MEL-5 > 100 µM | HL-60 > 100 µM | SF-295 > 100 µM | KM12 > 100 µM | SF-539 > 100 µM | MDA-N > 100 µM | UACC-62 > 100 µM | NCI-H226 > 100 µM | CAKI-1 > 100 µM

CCOC(=O)C(Cc1cccn1C(=O)OC(C)(C)C)[N+](=O)[O-] (stereo not given)
inactive: HT-29 22.3 µM | SW-620 23.8 µM | 786-0 21.9 µM | IGROV-1 21.5 µM | MOLT-4 20 µM | SK-MEL-2 20.1 µM | ACHN 22.3 µM | SK-OV-3 > 100 µM | SN12C 23.9 µM | COLO 205 20.8 µM | SK-MEL-28 27.4 µM | SK-MEL-5 21.2 µM | HL-60 21.1 µM | SF-295 30.6 µM | KM12 22.8 µM | SF-539 22.1 µM | MDA-N 26.7 µM | UACC-62 21.5 µM | NCI-H226 26.1 µM | CAKI-1 24.7 µM

CC(C)C(/C=C/c1ccccc1)=N\NC(=S)NN
inactive: HT-29 98.2 µM | SW-620 66.5 µM | 786-0 56.1 µM | IGROV-1 67.8 µM | MOLT-4 12.7 µM | SK-MEL-2 > 55.6 µM | ACHN 40.6 µM | SK-OV-3 > 94.4 µM | SN12C > 100 µM | COLO 205 55.1 µM | SK-MEL-28 > 100 µM | SK-MEL-5 33 µM | HL-60 19.4 µM | SF-295 67.6 µM | KM12 > 86.1 µM | SF-539 > 51.1 µM | MDA-N 26.6 µM | UACC-62 35.3 µM | NCI-H226 > 70.3 µM | CAKI-1 39.4 µM

COc1cc(-c2oc3c(OC)c(O)c(OC)c(O)c3c(=O)c2OC)ccc1O
inactive: HT-29 68.1 µM | SW-620 94.4 µM | 786-0 38.1 µM | IGROV-1 25.4 µM | MOLT-4 95.5 µM | SK-MEL-2 24.8 µM | ACHN 41.9 µM | SK-OV-3 17.9 µM | SN12C 59.8 µM | COLO 205 > 100 µM | SK-MEL-28 56.8 µM | SK-MEL-5 29.8 µM | HL-60 33.5 µM | SF-295 44.9 µM | KM12 > 100 µM | SF-539 40.4 µM | MDA-N 48.1 µM | UACC-62 20.7 µM | NCI-H226 34.9 µM | CAKI-1 24.8 µM

Reference: ChEMBL document CHEMBL1201862, “PubChem BioAssay data set” (2004)
